Laboratory results published in ChEMBL document CHEMBL4602660, “Kinase-Inhibitory Nucleoside Derivatives from the Pacific Bryozoan Nelliella nelliiformis” (J Nat Prod, 2020).
Active and inactive are the calls of the source. The calls are words filed in the database; no cut-off is given here.

Legend:
[1] = molecular target: MAP kinase-activated protein kinase 2 (Homo sapiens) (UniProt P49137); experiment: Inhibition of His-tagged human MAPKAPK2 expressed in Escherichia coli at 10 uM after 1 hr by Z'-LYTE assay relative to control
[2] = molecular target: T1, Ribosomal protein S6 kinase alpha-3 (Homo sapiens, UniProt P51812); experiment: Inhibition of His-tagged recombinant human RSK2 expressed in baculovirus expression system after 1 hr by Z'-LYTE assay
HL-60 = experiment: Cytotoxicity against human HL60 cells up to 10 uM; assay type: functional, cell-based
[3] = molecular target: T2, Glycogen synthase kinase-3 alpha (Homo sapiens, UniProt P49840); experiment: Inhibition of N-Terminal GST tagged human GSK3A expressed in baculovirus expression system at 10 uM after 1 hr by Z'-LYTE assay relative to control
Target sequence in this assay (P49840 2-483 limits assumed): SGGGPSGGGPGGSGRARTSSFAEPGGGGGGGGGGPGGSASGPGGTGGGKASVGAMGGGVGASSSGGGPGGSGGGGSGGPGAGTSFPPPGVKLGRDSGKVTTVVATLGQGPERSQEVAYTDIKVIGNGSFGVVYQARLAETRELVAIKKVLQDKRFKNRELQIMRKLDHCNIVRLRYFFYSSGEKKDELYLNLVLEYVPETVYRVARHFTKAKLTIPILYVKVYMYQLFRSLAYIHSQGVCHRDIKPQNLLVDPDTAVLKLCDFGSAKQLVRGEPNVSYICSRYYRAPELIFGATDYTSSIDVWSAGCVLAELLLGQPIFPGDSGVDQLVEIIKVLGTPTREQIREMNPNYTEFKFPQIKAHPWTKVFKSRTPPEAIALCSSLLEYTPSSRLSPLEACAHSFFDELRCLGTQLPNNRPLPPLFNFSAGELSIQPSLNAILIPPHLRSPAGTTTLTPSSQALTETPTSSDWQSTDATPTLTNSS

[4] = molecular target: T3, Mitogen-activated protein kinase 14 (Homo sapiens, UniProt Q16539); experiment: Inhibition of human MAPK14 expressed in Escherichia coli after 1 hr by Z'-LYTE assay
[5] = molecular target: Maternal embryonic leucine zipper kinase (Homo sapiens) (UniProt Q14680); experiment: Inhibition of GST tagged human MELK expressed in baculovirus expression system at 10 uM after 1 hr by Z'-LYTE assay relative to control
[6] = molecular target: T1, Ribosomal protein S6 kinase alpha-3; experiment: Inhibition of His-tagged recombinant human RSK2 expressed in baculovirus expression system at 10 uM after 1 hr by Z'-LYTE assay relative to control
[7] = molecular target: MAP kinase-activated protein kinase 3 (Homo sapiens) (UniProt Q16644); experiment: Inhibition of His-tagged human MAPKAPK3 expressed in baculovirus expression system at 10 uM after 1 hr by Z'-LYTE assay relative to control
Staphylococcus aureus = experiment: Antibacterial activity against Staphylococcus aureus up to 100 ug/ml; assay type: functional, organism-based
Saccharomyces cerevisiae = experiment: Antifungal activity against Saccharomyces cerevisiae; assay type: functional, organism-based
[8] = molecular target: Glycogen synthase kinase-3 beta (Homo sapiens) (UniProt P49841); experiment: Inhibition of N-Terminal His tagged human GSK3B expressed in baculovirus expression system at 10 uM after 1 hr by Z'-LYTE assay relative to control
[9] = molecular target: T2, Glycogen synthase kinase-3 alpha; experiment: Inhibition of N-Terminal GST tagged human GSK3A expressed in baculovirus expression system after 1 hr by Z'-LYTE assay
Target sequence in this assay (P49840 whole entry): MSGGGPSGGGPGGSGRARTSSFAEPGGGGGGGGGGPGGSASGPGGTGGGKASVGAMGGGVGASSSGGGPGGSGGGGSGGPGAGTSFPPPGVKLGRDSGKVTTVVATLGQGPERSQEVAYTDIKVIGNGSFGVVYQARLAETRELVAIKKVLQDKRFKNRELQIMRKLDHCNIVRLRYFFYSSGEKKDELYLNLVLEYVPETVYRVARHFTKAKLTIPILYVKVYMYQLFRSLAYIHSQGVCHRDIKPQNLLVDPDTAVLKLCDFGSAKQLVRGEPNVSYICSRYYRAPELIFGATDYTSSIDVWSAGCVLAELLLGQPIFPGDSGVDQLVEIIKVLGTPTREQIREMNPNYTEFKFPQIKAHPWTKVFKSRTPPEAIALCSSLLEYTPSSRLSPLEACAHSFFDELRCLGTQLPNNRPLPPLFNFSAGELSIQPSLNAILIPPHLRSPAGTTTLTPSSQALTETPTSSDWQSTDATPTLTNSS

[10] = molecular target: T3, Mitogen-activated protein kinase 14; experiment: Inhibition of human MAPK14 expressed in Escherichia coli at 10 uM after 1 hr by Z'-LYTE assay relative to control

Chain of Maternal embryonic leucine zipper kinase (Homo sapiens) (Q14680 whole entry, looked up): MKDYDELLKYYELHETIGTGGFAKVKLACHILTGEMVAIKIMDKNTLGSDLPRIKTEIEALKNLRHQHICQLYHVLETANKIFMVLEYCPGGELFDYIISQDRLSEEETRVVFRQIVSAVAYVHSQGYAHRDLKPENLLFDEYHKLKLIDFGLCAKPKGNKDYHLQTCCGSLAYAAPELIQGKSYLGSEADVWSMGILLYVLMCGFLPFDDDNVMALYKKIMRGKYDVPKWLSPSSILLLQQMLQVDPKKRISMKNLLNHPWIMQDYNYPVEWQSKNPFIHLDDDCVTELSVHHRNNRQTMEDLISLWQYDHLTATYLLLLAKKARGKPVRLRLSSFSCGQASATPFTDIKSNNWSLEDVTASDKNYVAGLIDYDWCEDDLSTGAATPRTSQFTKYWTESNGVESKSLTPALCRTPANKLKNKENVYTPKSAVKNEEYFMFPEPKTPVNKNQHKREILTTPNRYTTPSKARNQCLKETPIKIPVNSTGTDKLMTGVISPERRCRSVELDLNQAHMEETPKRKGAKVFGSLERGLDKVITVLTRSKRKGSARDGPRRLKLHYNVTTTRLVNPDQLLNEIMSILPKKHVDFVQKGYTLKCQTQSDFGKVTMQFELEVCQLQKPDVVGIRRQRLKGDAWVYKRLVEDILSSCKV
Chain of MAP kinase-activated protein kinase 2 (Homo sapiens) (P49137 whole entry, looked up): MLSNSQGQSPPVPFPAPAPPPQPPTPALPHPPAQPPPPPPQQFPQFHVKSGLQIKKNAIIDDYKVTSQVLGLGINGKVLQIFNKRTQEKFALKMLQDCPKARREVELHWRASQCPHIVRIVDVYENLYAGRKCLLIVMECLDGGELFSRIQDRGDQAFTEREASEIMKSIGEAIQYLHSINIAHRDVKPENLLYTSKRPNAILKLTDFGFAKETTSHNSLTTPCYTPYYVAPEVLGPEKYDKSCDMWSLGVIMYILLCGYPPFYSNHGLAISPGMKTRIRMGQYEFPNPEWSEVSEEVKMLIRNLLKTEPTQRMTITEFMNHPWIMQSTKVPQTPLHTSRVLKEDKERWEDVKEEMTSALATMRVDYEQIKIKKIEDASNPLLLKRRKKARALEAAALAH
Chain of Glycogen synthase kinase-3 beta (Homo sapiens) (P49841 whole entry, looked up): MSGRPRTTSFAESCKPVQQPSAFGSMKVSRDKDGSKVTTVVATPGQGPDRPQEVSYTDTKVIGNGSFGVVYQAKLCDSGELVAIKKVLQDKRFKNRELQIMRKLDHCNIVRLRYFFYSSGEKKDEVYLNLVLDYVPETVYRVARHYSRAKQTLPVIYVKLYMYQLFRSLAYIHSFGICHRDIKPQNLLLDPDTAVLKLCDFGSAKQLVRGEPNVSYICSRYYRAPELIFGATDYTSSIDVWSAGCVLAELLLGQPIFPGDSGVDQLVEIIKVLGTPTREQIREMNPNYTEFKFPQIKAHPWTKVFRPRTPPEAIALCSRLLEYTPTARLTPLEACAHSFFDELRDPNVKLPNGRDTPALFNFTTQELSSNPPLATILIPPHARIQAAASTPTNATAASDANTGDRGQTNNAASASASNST
Chain of MAP kinase-activated protein kinase 3 (Homo sapiens) (Q16644 whole entry, looked up): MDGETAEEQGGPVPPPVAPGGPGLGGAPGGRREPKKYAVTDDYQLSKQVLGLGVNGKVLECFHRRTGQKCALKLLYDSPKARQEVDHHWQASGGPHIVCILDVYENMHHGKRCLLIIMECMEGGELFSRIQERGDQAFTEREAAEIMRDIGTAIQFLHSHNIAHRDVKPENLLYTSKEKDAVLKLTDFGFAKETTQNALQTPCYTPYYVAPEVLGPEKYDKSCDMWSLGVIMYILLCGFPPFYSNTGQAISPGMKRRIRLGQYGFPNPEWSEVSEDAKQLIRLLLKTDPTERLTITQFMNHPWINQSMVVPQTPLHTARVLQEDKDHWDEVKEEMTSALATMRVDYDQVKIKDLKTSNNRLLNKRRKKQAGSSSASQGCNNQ
T3 sequence (Q16539 whole entry): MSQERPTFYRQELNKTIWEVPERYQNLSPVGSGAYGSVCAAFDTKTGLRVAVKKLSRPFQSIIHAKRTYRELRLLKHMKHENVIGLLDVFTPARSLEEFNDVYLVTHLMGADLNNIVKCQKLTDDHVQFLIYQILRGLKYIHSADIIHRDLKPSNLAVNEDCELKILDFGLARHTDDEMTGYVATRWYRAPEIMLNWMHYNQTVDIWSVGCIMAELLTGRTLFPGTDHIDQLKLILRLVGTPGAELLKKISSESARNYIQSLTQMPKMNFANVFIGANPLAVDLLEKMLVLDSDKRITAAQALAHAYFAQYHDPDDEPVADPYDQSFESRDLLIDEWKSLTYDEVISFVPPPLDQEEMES
T1 sequence (P51812 whole entry): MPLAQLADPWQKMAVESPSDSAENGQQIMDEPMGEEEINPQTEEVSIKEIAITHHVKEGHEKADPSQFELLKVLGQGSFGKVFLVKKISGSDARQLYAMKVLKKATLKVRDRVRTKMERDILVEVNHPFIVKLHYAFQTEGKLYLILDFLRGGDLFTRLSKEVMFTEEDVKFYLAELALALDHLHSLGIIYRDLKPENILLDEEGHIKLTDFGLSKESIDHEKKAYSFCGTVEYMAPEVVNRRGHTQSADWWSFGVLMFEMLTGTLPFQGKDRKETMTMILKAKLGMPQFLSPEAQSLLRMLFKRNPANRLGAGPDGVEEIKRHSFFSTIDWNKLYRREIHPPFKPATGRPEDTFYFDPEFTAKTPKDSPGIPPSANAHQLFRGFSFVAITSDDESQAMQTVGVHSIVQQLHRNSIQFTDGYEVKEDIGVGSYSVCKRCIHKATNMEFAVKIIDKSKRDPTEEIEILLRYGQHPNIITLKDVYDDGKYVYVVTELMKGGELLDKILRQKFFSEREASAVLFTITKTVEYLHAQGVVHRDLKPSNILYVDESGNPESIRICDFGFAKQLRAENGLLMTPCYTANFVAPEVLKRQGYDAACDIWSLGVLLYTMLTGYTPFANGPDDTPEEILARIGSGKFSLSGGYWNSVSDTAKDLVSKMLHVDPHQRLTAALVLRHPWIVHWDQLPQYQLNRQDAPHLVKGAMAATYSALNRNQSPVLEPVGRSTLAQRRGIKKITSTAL

Compound | inhibition [1] | IC50 [2] | inhibition [3] | IC50 [4] | inhibition [5] | inhibition [6] | inhibition [7] | inhibition [8] | IC50 [9] | inhibition [10] | Activity (HL-60) | Activity (Staphylococcus aureus) | Activity (Saccharomyces cerevisiae)
Nc1ncnc2c1ncn2[C@@H]1O[C@H](COC(=O)c2ccc[nH]2)[C@@H](O)[C@H]1O | 95% | 800 nM | 99% | 1000 nM | 95% | 96% | 98% | 100% | 890 nM | 95% | inactive | inactive | inactive
Nc1ncnc2c1ncn2[C@@H]1O[C@H](COC(=O)c2cc[nH]c2)[C@@H](O)[C@H]1O | 87% | 970 nM | 101% | 1710 nM | 98% | 94% | 98% | 98% | 1000 nM | 95% | inactive | inactive | inactive
Nc1nc2c(ncn2[C@@H]2O[C@H](COC(=O)c3cc[nH]c3)[C@@H](O)[C@H]2O)c(=O)[nH]1 | 82% | 680 nM | 93% | 990 nM | 87% | 93% | 99% | 96% | 670 nM | 84% | inactive | inactive | inactive

Continued, in another order:

inhibition [1] | IC50 [2] | inhibition [3] | IC50 [4] | inhibition [5] | inhibition [6] | inhibition [7] | inhibition [8] | IC50 [9] | inhibition [10] | Compound | Activity (HL-60) | Activity (Staphylococcus aureus) | Activity (Saccharomyces cerevisiae)
88% | 660 nM | 98% | 950 nM | 96% | 96% | 101% | 98% | 710 nM | 93% | Nc1nc2c(ncn2[C@@H]2O[C@H](COC(=O)c3ccc[nH]3)[C@@H](O)[C@H]2O)c(=O)[nH]1 | inactive | inactive | inactive
42% | 230 nM | 94% | 1320 nM | 97% | 102% | 83% | 94% | 1110 nM | 95% | O=C(OC[C@H]1O[C@@H](n2cnc3c(=O)[nH]cnc32)[C@H](O)[C@@H]1O)c1ccc[nH]1 | inactive | inactive | inactive
89% | 640 nM | 100% | 870 nM | 97% | 95% | 100% | 99% | 610 nM | 95% | O=C(OC[C@H]1O[C@@H](n2cnc3c(=O)[nH]cnc32)[C@H](O)[C@@H]1O)c1cc[nH]c1 | inactive | inactive | inactive
